From paper PMC3694096, “Development of Novel In Vivo Chemical Probes to Address CNS Protein Kinase Involvement in Synaptic Dysfunction” (PLoS ONE, 2013)
Like-named read-outs stand apart in the source and are kept apart here.

What was measured:
Abl (M351T) = target: T1, Abl (M351T) (Homo sapiens, UniProt P00519, M351T); assay: Kinome profiler screen; type: biochemical; details: at 20,000 nM inhibitor; kinase activity remaining
T1 construct: purchased Millipore KinaseProfiler

ALK = target: T2, ALK (Homo sapiens, UniProt Q9UM73); assay: Kinome profiler screen; type: biochemical; details: at 20,000 nM inhibitor; kinase activity remaining
T2 construct: purchased Millipore KinaseProfiler

CHK1 = target: T3, CHK1 (Homo sapiens, UniProt O14757); assay: Kinome profiler screen; type: biochemical; details: at 20,000 nM inhibitor; kinase activity remaining
T3 construct: purchased Millipore KinaseProfiler

CLK3 = target: T4, CLK3 (Homo sapiens, UniProt P49761); assay: Kinome profiler screen; type: biochemical; details: at 20,000 nM inhibitor; kinase activity remaining
T4 construct: purchased Millipore KinaseProfiler
T4 sequence (P49761 whole entry): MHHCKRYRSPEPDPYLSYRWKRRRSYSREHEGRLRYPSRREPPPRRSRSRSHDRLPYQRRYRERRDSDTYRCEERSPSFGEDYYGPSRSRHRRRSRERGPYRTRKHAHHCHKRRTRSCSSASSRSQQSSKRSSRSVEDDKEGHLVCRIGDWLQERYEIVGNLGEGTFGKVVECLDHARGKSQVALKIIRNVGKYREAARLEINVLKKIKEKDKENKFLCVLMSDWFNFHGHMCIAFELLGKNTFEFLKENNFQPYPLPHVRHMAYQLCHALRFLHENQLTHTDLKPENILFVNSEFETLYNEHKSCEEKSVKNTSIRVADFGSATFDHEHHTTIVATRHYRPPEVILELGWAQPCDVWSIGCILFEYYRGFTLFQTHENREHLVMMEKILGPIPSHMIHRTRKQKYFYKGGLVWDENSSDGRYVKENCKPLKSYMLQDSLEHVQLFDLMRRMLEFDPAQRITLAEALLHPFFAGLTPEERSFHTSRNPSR

cKit(D816V) = target: T5, cKit(D816V) (Homo sapiens, UniProt P10721, D816V); assay: Kinome profiler screen; type: biochemical; details: at 20,000 nM inhibitor; kinase activity remaining
T5 construct: purchased Millipore KinaseProfiler
T5 sequence (P10721 26-976 D816V): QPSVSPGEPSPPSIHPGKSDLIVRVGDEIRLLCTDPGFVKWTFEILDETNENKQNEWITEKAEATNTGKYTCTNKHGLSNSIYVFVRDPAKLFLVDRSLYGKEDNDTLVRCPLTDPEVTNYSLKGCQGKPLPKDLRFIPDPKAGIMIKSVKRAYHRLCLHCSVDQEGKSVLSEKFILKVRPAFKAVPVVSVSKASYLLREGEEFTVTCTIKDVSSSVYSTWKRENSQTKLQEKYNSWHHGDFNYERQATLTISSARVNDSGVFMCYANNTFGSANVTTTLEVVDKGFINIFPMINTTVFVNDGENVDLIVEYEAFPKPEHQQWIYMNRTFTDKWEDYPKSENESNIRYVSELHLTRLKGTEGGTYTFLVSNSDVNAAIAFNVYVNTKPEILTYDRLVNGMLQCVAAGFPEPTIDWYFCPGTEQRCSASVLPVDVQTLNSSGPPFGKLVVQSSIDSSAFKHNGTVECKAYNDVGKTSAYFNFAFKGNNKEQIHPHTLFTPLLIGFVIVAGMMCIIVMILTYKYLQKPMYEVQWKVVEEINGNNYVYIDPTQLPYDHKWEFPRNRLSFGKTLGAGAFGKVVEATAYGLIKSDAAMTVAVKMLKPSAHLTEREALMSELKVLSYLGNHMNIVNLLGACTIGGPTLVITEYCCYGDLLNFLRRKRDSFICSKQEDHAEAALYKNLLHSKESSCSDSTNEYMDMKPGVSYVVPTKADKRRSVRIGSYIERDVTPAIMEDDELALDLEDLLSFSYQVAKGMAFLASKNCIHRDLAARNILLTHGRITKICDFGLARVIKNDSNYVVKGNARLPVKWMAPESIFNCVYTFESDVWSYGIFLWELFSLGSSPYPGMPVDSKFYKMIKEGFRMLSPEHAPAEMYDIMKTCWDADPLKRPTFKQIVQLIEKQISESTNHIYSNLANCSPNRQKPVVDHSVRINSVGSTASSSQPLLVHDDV

cSRC = target: T6, cSRC (Homo sapiens, UniProt P12931); assay: Kinome profiler screen; type: biochemical; details: at 20,000 nM inhibitor; kinase activity remaining
T6 construct: purchased Millipore KinaseProfiler

EGFR(T790M,L858R) = target: T7, EGFR(T790M,L858R) (Homo sapiens, UniProt P00533, L858R/T790M); assay: Kinome profiler screen; type: biochemical; details: at 20,000 nM inhibitor; kinase activity remaining
T7 construct: purchased Millipore KinaseProfiler

EphA3 = target: T8, EphA3 (Homo sapiens, UniProt P29320); assay: Kinome profiler screen; type: biochemical; details: at 20,000 nM inhibitor; kinase activity remaining
T8 construct: purchased Millipore KinaseProfiler
T8 sequence (P29320 21-983): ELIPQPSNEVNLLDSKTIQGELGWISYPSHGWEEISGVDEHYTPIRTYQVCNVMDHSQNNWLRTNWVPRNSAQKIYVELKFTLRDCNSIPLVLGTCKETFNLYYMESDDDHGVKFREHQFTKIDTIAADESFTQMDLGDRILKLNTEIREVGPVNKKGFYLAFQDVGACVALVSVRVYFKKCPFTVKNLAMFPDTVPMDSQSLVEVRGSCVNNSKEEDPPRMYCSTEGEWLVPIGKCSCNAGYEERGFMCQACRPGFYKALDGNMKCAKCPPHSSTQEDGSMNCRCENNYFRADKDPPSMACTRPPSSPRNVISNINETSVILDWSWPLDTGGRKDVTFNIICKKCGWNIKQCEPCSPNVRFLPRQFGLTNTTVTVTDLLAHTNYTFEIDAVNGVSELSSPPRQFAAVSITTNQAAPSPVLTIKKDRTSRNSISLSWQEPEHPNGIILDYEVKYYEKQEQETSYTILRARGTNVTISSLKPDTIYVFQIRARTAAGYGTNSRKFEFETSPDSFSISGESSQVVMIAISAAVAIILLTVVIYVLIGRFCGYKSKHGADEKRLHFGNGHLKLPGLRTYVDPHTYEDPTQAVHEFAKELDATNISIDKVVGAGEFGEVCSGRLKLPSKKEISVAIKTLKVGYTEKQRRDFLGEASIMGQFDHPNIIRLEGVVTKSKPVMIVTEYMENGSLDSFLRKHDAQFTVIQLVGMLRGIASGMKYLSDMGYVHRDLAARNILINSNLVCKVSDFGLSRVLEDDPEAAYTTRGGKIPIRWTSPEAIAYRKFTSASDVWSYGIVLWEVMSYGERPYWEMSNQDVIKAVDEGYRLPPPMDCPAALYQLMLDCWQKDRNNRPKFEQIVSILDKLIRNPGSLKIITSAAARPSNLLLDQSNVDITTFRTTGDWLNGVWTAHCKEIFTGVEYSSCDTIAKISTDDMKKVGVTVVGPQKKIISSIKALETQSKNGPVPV

EphB2 = target: T9, EphB2 (Homo sapiens, UniProt P29323); assay: Kinome profiler screen; type: biochemical; details: for activity at 20 µM: at 20,000 nM inhibitor, kinase activity remaining
T9 construct: purchased Millipore
T9 sequence (P29323 19-1055): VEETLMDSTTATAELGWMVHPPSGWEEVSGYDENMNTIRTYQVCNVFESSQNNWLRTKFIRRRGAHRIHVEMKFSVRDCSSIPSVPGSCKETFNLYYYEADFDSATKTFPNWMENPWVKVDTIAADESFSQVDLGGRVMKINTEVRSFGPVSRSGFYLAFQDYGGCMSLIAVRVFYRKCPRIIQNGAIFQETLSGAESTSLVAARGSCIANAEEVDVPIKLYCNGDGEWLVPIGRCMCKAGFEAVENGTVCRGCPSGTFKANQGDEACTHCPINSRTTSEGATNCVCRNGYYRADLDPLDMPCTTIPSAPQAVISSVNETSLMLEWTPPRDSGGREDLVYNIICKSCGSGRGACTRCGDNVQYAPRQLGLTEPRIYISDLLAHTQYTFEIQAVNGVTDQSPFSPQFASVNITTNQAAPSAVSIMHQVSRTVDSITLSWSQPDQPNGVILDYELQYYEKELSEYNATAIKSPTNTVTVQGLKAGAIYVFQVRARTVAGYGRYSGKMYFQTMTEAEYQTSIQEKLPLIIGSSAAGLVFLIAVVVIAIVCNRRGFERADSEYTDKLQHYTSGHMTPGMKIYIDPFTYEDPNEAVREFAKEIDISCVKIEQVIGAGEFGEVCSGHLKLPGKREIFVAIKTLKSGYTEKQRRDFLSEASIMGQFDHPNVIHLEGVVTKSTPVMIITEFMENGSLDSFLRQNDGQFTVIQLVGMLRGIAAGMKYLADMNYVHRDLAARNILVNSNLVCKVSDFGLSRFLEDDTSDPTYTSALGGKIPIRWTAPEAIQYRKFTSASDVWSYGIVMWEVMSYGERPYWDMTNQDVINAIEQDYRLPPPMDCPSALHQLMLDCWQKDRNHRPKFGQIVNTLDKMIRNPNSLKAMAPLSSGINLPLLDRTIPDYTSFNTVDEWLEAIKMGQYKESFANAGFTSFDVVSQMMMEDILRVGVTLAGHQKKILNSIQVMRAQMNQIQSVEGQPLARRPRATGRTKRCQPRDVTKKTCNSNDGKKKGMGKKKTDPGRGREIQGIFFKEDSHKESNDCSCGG

Hck activated = target: T10, Hck activated (Homo sapiens, UniProt P08631); assay: Kinome profiler screen; type: biochemical; details: at 20,000 nM inhibitor; kinase activity remaining
T10 construct: purchased Millipore KinaseProfiler

Lyn = target: T11, Lyn (Homo sapiens, UniProt P07948); assay: Kinome profiler screen; type: biochemical; details: at 20,000 nM inhibitor; kinase activity remaining
T11 construct: purchased Millipore KinaseProfiler

MEK1 = target: T12, MEK1 (Homo sapiens, UniProt Q02750); assay: Kinome profiler screen; type: biochemical; details: at 20,000 nM inhibitor; kinase activity remaining
T12 construct: purchased Millipore KinaseProfiler
T12 sequence (Q02750 whole entry): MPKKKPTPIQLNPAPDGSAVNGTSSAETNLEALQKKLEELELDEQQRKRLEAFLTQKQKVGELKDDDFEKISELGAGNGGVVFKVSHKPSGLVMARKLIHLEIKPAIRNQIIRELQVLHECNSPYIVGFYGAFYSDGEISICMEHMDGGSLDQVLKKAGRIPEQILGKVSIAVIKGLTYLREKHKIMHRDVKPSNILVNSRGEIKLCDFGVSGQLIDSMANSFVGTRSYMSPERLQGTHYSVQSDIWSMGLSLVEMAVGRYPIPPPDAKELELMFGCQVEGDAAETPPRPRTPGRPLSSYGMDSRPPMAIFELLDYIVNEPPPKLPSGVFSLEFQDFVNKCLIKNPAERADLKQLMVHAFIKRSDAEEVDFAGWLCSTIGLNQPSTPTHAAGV

Met = target: T13, Met (Homo sapiens, UniProt P08581); assay: Kinome profiler screen; type: biochemical; details: at 20,000 nM inhibitor; kinase activity remaining
T13 construct: purchased Millipore KinaseProfiler

MLK1 = target: T14, MLK1 (Homo sapiens, UniProt P80192); assay: Kinome profiler screen; type: biochemical; details: at 20,000 nM inhibitor; kinase activity remaining
T14 construct: purchased Millipore KinaseProfiler
T14 sequence (P80192 whole entry): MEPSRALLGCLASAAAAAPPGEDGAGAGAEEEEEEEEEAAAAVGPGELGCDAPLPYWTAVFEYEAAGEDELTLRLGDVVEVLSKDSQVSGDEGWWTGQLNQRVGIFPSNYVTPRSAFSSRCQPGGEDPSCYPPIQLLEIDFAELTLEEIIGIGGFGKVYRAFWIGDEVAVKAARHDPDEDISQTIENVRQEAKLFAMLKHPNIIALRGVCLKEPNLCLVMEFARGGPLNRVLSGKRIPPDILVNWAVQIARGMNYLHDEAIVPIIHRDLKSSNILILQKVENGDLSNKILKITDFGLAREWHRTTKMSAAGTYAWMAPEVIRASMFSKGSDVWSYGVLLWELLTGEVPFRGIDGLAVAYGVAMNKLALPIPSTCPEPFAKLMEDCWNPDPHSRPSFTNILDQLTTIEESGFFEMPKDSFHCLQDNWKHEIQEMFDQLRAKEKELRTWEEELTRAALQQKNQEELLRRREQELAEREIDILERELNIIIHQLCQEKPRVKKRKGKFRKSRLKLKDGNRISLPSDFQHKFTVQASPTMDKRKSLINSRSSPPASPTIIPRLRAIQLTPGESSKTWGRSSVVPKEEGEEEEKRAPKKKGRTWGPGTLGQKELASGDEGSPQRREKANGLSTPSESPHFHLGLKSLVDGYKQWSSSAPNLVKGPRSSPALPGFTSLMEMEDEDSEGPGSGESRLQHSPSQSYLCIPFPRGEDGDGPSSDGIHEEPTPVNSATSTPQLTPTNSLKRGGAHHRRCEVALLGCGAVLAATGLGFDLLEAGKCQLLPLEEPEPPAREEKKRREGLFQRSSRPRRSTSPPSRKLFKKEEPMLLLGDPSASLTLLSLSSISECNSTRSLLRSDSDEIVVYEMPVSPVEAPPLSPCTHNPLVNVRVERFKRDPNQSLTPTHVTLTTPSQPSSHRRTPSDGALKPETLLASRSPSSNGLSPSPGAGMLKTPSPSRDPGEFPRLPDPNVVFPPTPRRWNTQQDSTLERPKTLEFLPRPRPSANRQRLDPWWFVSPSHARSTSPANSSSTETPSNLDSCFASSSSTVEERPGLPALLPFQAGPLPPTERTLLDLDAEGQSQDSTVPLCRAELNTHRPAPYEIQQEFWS

Mnk2 = target: T15, Mnk2 (Homo sapiens, UniProt Q9HBH9); assay: Kinome profiler screen; type: biochemical; details: at 20,000 nM inhibitor; kinase activity remaining
T15 construct: purchased Millipore KinaseProfiler
T15 sequence (Q9HBH9 whole entry): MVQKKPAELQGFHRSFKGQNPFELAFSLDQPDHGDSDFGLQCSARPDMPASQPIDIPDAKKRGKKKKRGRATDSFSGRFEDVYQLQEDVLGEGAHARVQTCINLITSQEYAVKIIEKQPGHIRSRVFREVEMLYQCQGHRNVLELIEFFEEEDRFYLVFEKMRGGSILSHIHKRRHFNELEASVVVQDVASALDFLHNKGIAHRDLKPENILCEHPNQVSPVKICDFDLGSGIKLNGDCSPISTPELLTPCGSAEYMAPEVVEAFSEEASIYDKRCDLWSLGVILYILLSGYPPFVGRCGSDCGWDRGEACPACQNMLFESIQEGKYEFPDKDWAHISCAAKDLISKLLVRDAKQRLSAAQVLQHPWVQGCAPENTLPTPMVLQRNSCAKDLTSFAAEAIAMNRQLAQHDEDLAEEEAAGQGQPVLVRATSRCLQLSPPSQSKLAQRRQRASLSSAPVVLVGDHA

mTOR/FKBP12 = target: T16, mTOR/FKBP12 (Homo sapiens, UniProt P42345); assay: Kinome profiler screen; type: biochemical; details: at 20,000 nM inhibitor; kinase activity remaining
T16 construct: purchased Millipore KinaseProfiler

MuSK = target: T17, MuSK (Homo sapiens, UniProt O15146); assay: Kinome profiler screen; type: biochemical; details: at 20,000 nM inhibitor; kinase activity remaining
T17 construct: purchased Millipore KinaseProfiler

PAK4 = target: T18, PAK4 (Homo sapiens, UniProt O96013); assay: Kinome profiler screen; type: biochemical; details: at 20,000 nM inhibitor; kinase activity remaining
T18 construct: purchased Millipore KinaseProfiler

[1] = target: T19, PI3 Kinase (p110 β/p85β)(m) (Mus musculus, UniProt Q8BTI9); assay: Kinome profiler screen; type: biochemical; details: at 20,000 nM inhibitor; kinase activity remaining
T19 construct: purchased Millipore KinaseProfiler

Pim-3 = target: T20, Pim-3 (Homo sapiens, UniProt Q86V86); assay: Kinome profiler screen; type: biochemical; details: at 20,000 nM inhibitor; kinase activity remaining
T20 construct: purchased Millipore KinaseProfiler

PTK5 = target: T21, PTK5 (Homo sapiens, UniProt P42685); assay: Kinome profiler screen; type: biochemical; details: at 20,000 nM inhibitor; kinase activity remaining
T21 construct: purchased Millipore KinaseProfiler

Ret (V804L) = target: T22, Ret (V804L) (Homo sapiens, UniProt P07949, V804L); assay: Kinome profiler screen; type: biochemical; details: at 20,000 nM inhibitor; kinase activity remaining
T22 construct: purchased Millipore KinaseProfiler

Src(T341M) = target: T23, Src(T341M) (Homo sapiens, UniProt P12931, T341M); assay: Kinome profiler screen; type: biochemical; details: at 20,000 nM inhibitor; kinase activity remaining
T23 construct: purchased Millipore KinaseProfiler

Syk = target: T24, Syk (Homo sapiens, UniProt P43405); assay: Kinome profiler screen; type: biochemical; details: at 20,000 nM inhibitor; kinase activity remaining
T24 construct: purchased Millipore KinaseProfiler

TBK1 = target: T25, TBK1 (Homo sapiens, UniProt Q9UHD2); assay: Kinome profiler screen; type: biochemical; details: at 20,000 nM inhibitor; kinase activity remaining
T25 construct: purchased Millipore KinaseProfiler

TrkA = target: T26, TrkA (Homo sapiens, UniProt P04629); assay: Kinome profiler screen; type: biochemical
T26 construct: purchased Millipore KinaseProfiler

Txk = target: T27, Txk (Homo sapiens, UniProt P42681); assay: Kinome profiler screen; type: biochemical; details: at 20,000 nM inhibitor; kinase activity remaining
T27 construct: purchased Millipore KinaseProfiler

VRK2 = target: T28, VRK2 (Homo sapiens, UniProt Q86Y07); assay: Kinome profiler screen; type: biochemical; details: at 20,000 nM inhibitor; kinase activity remaining
T28 construct: purchased Millipore KinaseProfiler

ZIPK = target: T29, ZIPK (Homo sapiens, UniProt O43293); assay: Kinome profiler screen; type: biochemical; details: at 20,000 nM inhibitor; kinase activity remaining
T29 construct: purchased Millipore KinaseProfiler
T29 sequence (O43293 whole entry): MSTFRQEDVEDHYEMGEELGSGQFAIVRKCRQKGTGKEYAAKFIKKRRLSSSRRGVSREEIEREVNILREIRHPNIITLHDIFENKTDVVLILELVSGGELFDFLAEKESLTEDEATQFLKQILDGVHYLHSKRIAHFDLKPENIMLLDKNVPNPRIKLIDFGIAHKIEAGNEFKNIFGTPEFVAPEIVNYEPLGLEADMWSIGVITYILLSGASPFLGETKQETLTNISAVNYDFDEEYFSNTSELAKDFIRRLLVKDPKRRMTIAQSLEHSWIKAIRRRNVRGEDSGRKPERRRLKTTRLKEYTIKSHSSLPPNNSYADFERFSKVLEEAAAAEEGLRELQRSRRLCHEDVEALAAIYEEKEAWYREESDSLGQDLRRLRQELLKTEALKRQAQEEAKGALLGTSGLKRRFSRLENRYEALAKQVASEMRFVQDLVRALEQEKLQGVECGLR

[2] = system: sensory perception of electric shock; assay: Sensory threshold assessment; type: in vivo, C57BL/6J mice; details: control test

Row | Compound | activity at 20 µM (Abl (M351T)) | activity at 20 µM (ALK) | activity at 20 µM (CHK1) | activity at 20 µM (CLK3) | activity at 20 µM (cKit(D816V)) | activity at 20 µM (cSRC) | activity at 20 µM (EGFR(T790M,L858R)) | activity at 20 µM (EphA3) | activity at 20 µM (EphB2) | activity at 20 µM (Hck activated) | activity at 20 µM (Lyn) | activity at 20 µM (MEK1) | activity at 20 µM (Met) | activity at 20 µM (MLK1) | activity at 20 µM (Mnk2) | activity at 20 µM (mTOR/FKBP12) | activity at 20 µM (MuSK) | activity at 20 µM (PAK4) | activity at 20 µM [1] | activity at 20 µM (Pim-3) | other results
1 | CN(C)c1cc(-c2ccncc2)c(-c2ccc3ccccc3c2)nn1 [MW108, N, N-dimethyl-6-(naphthalen-2-yl)-5-(pyridin-4-yl)pyridazin-3-amine] | 106% | 105% | 94% | 102% | 103% | 125% | 40% | 101% | 36% | 97% | 100% | 130% | 118% | 98% | 99% | 100% | 104% | 104% | 101% | 105% | IC50 (EphB2): 16.2 µM; activity at 20 µM (PTK5): 80%; activity at 20 µM (Ret (V804L)): 102%; activity at 20 µM (Src(T341M)): 92%; activity at 20 µM (Syk): 88%; activity at 20 µM (TBK1): 96%; activity at 20 µM (TrkA): 91%; activity at 20 µM (Txk): 98%; activity at 20 µM (VRK2): 83%; activity at 20 µM (ZIPK): 93%; sensory threshold [2]: Sensory threshold was not affected regardless of treatment
2 | CN(C)c1cc(-c2ccncc2)c(-c2cccc3ccccc23)nn1 [MW181, N,N-dimethyl-6-(naphthalen-1-yl)-5-(pyridin-4-yl)pyridazin-3-amine] | 101% | 107% | 115% | 101% | 103% | 101% | 80% | 102% | 92% | 106% | 93% | 105% | 112% | 95% | 99% | 96% | 102% | 109% | 100% | 106% | activity at 20 µM (PTK5): 90%; activity at 20 µM (Ret (V804L)): 102%; activity at 20 µM (Src(T341M)): 102%; activity at 20 µM (Syk): 105%; activity at 20 µM (TBK1): 98%; activity at 20 µM (TrkA; at 20,000 nM inhibitor, kinase activity remaining, read-out: % Activity): 109%; activity at 20 µM (Txk): 98%; activity at 20 µM (VRK2): 86%; activity at 20 µM (ZIPK): 106%; sensory threshold [2]: Sensory threshold was not affected regardless of treatment
